For the experiment, the system named is immobilized mannose isomerase. The following applies: 0.4 g immobilized enzyme, 40° C., 5 ml of 0.1M sugar solution, after 18 hours. The method, then:
Mannose isomerase activity was typically determined at 40° C. using a feedstock containing 0.1M D-mannose and 0.2M Tris buffer at pH 6.5. Mannose isomerase activity was determined in extracts primarily by measuring mannose-dependent formation of fructose according to the method described by J. H. Roe, J Biol. Chem. 107: 15-19 (1934). Assay mixtures (1 ml) containing 200 mM Tris buffer, pH 7, 100 mM D-mannose, and appropriately diluted cell extract were incubated at 40° C. After 15 min., 0.2 ml of each reaction mixture was transferred to a separate tube and 0.2 ml of ethanol containing 0.1% (wt/vol) resorcinol and 0.6 ml of 10N HCl was added. The tubes were incubated at 80° C. for 8 min, and then placed in ice water to stop the reaction. The absorbance at 484 nm was determined and compared to a standard curve relating absorbance to fructose concentration. An absorbance of 0.1 was equivalent to 150 nmoles of fructose per ml of assay mixture. The conversion of mannose to fructose (as well as any reactions with other sugars) was also determined using HPLC and known standards.
A similar set of experiments was used to test the behavior of the enzyme in the presence of other sugar substrates. For such experiments a mixed sugar feed was prepared approximating the ratios of hemicellulose-derived sugars identified in sulfite waste liquor streams and containing (in grams per liter of 0.2M Tris buffer at pH 7) galactose (15.9), glucose (15.9), mannose (40.3), arabinose (8.0), and xylose (15.2),.

With `O=C[C@H](O)[C@@H](O)[C@@H](O)[C@H](O)CO` [D-galactose], the loss of sugar result is “no detectable loss”. The same measure for `O=C[C@@H](O)[C@@H](O)[C@H](O)CO` [D-lyxose]: “no detectable loss”; for `O=C[C@H](O)[C@@H](O)[C@H](O)CO` [D-xylose]: “no detectable loss”.

`O=C(CO)[C@@H](O)[C@H](O)CO` [D-xylulose]: the loss of sugar result is listed as “no detectable loss”. Then `O=C[C@H](O)[C@@H](O)[C@@H](O)CO` [L-arabinose], with “no detectable loss”; and `O=C[C@H](O)[C@H](O)[C@@H](O)[C@@H](O)CO` [L-mannose], with “no detectable loss”. For the molecule `C[C@H](O)[C@H](O)[C@@H](O)[C@@H](O)C=O` [L-rhamnose], the loss of sugar result was “no detectable loss”.

The values are drawn from patent US5049494A, “Conversion of mannose to fructose” (Allied-Signal Inc., priority 1989, dated 1991).
